Blank lines part the entries; values can stand above or below the compound they belong to.
How the values were obtained:
[1] = target: T1, fructose-1,6-bisphosphatase (LmFBPase) (Leishmania major, UniProt O97193); design: gene FBP
T1 sequence (O97193 1-351): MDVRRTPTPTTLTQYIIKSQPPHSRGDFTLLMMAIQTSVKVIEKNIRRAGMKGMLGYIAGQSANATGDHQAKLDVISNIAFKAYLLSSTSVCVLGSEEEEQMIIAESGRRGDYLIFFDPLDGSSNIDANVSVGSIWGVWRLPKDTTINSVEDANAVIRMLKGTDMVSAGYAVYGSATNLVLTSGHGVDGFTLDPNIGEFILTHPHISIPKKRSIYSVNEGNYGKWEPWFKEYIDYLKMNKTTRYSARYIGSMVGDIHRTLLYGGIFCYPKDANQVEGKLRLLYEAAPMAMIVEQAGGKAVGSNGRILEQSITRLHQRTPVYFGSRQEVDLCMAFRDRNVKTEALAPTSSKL

[2] = target: T1, fructose-1,6-bisphosphatase (LmFBPase); experiment: co-crystal structure ([…] Å) with AMP; thermal shift; type: binding; design: gene FBP; C-terminal His6-tagged LmFBPase, homotetramer
[3] = target: T2, fructose-1,6-bisphosphatase (LmFBPase) (Leishmania major, UniProt O97193); experiment: PGI/G6PDH coupled enzyme activity assay; type: biochemical
T2 construct: gene FBP; C-terminal His6-tagged LmFBPase

[4] = target: T1, fructose-1,6-bisphosphatase (LmFBPase); experiment: co-crystal structure ([…] Å) with F6P; coupled enzyme assay Ki; type: biochemical; design: gene FBP; C-terminal His6-tagged LmFBPase, homotetramer

Structure (SMILES): O=P(O)(O)O [phosphate]
co-crystal structure (2.8 Å) with Mn2+ [1]: a catalytic product Pi and manganese atoms were found in each active site

Structure (SMILES): O=P(O)(O)OC[C@H]1OC(O)(CO)[C@@H](O)[C@@H]1O (stereo partly shown) [fructose 6-phosphate]
co-crystal structure (2.62 Å) with AMP; thermal shift [2]: The catalytic product F6P was found in each of the active sites of the four subunits

Ki [3]: 1.9 µM
Structure (SMILES): O=P(O)(O)OC[C@H]1O[C@@](CO)(OP(=O)(O)O)[C@@H](O)[C@@H]1O [Fructose 2,6-bisphosphate]

Structure (SMILES): Nc1ncnc2c1ncn2[C@@H]1O[C@H](COP(=O)(O)O)[C@@H](O)[C@H]1O [AMP]
Ki [4]: 63.8 µM

From article PMC5639204, “Structures of Leishmania Fructose-1,6-Bisphosphatase Reveal Species-Specific Differences in the Mechanism of Allosteric Inhibition” (Journal of Molecular Biology, 2017)
